Assay results taken from US8507472B2 (priority 2010, dated 2013).

Tested on: Pyrenophora teres
Test: Pyrenophora teres test (barley)/protective
Type: in vivo
Details: in vivo
Description: Solvent: 49 parts by weight of N,N-dimethylformamide
Emulsifier: 1 part by weight of alkylaryl polyglycol ether
To produce a suitable preparation of active compounds, 1 part by weight of active compound is mixed with the stated amounts of solvent and emulsifier, and the concentrate is diluted with water to the desired concentration.
To test for protective activity, young barley plants are sprayed with the active compound preparation at the stated application rate. 1 day after the treatment, the plants are inoculated with an aqueous spore suspension of Pyrenophora teres and then remain at 100% rel. atmospheric humidity and 22° C. for 48 h. The plants are then placed in a greenhouse at 80% rel. atmospheric humidity and a temperature of 20° C.
Evaluation is carried out 7-9 days after the inoculation. 0% means an efficacy which corresponds to that of the control, whereas an efficacy of 100% means that no infection is observed.

Row | SMILES | efficacy in % [%]
1 | CC(C)CNc1cc(-c2c(-c3cccc(F)c3)nn3c2CCC3)ccn1 [Example 73] | 70
2 | Nc1cc(-c2c(-c3ccc(F)cc3)nn3c2CCOC3)ccn1 [Example 103] | 90
3 | CC(C)CNc1cc(-c2c(-c3ccccc3)nn3c2CCC3)ccn1 [Example 72] | 80
4 | CC(C)CC(=O)Nc1cc(-c2c(-c3ccc(F)cc3)nn3c2CCOC3(C)C)ccn1 [Example 105] | 95

Tested on: not listed separately
Test: log P determination by HPLC retention times (alkan-2-one calibration)
Details: HCOOH; preparation examples in the text

Row | SMILES | log P(HCOOH)
5 | CC(Cl)CCC(=O)NN=C(c1ccccc1)c1ccccc1 (stereo not shown) [XXV-1, 4-Chloro-N′-(diphenylmethylene)pentane hydrazide] | 3.76

Same assay, conditions: log P(HCOOH), HCOOH; preparation examples in the text

Row | SMILES | chromatographic logP
6 | [O-]c1on[n+]2c1CCCC2 [III-2, 4,5,6,7-Tetrahydro[1,2,3]oxadiazolo[3,4-a]pyridin-8-ium 3-olate] | 0.59
7 | Ic1c(-c2cccs2)nn2c1CCCC2 [VIII-13, 2-(2-Thienyl)-3-iodo-4,5,6,7-tetrahydropyrazolo[1,5-a]pyridine] | 3.45
8 | Fc1ccc(-c2nn3c(c2I)CCOC3)cc1 [VIIIa-1, 2-(4-Fluorophenyl)-3-iodo-4,5-dihydropyrazolo[1,5-c][1,3]oxazine] | 3.23
9 | COC(=O)c1cc(-c2ccc(F)cc2)nn1CCCl [XI-1, Methyl 1-(2-chloroethyl)-3-(4-fluorophenyl)-1H-pyrazole-5-carboxylate] | 3.58
10 | [O-]c1on[n+]2c1CCCCC2 [III-1, 5,6,7,8-Tetrahydro-4H-[1,2,3]oxadiazolo[3,4-a]azepin-9-ium 3-olate] | 0.6
11 | Ic1c(-c2ccccc2)nn2c1COCC2 [VIII-15, 3-Iodo-2-phenyl-6,7-dihydro-4H-pyrazolo[5,1-c][1,4]oxazine] | 2.82
12 | OCc1cc(-c2ccccc2)n[nH]1 [XIV-1, (3-Phenyl-1H-pyrazol-5-yl)methanol] | 1.14
13 | OCc1cc(-c2ccc(F)cc2)nn1CCCl [XIII-1, [1-(2-Chloroethyl)-3-(4-fluorophenyl)-1H-pyrazol-5-yl]methanol] | 1.84
14 | CC1CCc2c(C(=O)O)c(-c3ccccc3F)nn21 (stereo not shown) [XXXI-3, 2-(2-Fluorophenyl)-6-methyl-5,6-dihydro-4H-pyrrolo[1,2-b]pyrazole-3-carboxylic acid] | 1.64
15 | COC(=O)CC(=NN1CCC(C)C1=O)c1ccc(F)cc1 (stereo not shown) | 2.09
16 | c1cc(-c2cc3n(n2)CCCC3)cs1 [VII-12, 2-(3-Thienyl)-4,5,6,7-tetrahydropyrazolo[1,5-a]pyridine] | 2.25
17 | O=C1CCCN1N=C(c1ccccc1)c1ccccc1 [XXVI-2, 1-[(Diphenylmethylene)amino]pyrrolidin-2-one] | 2.23
18 | O=C(O)c1c(-c2ccccc2F)nn2c1CCC2 [XXXI-4, 2-(2-Fluorophenyl)-5,6-dihydro-4H-pyrrolo[1,2-b]pyrazole-3-carboxylic acid] | 1.35
19 | COC(=O)c1c(-c2ccc(F)cc2)nn2c1C(C)CC2 (stereo not shown) [XXX-2, Methyl 2-(4-fluorophenyl)-4-methyl-5,6-dihydro-4H-pyrrolo[1,2-b]pyrazole-3-carboxylate] | 2.71
20 | CC(CCC(=O)NN=C(c1ccccc1)c1ccccc1)OS(C)(=O)=O (stereo not shown) [5-[2-(diphenylmethylene)hydrazino]-5-oxopentan-2-yl methanesulphonate] | 2.82
21 | Fc1ccc(C#Cc2ccnc(Cl)c2)cc1 [II-6, 2-Chloro-4-[(4-fluorophenyl)ethynyl]pyridine] | 3.8
22 | COC(=O)CC(=NN1C(=O)CCC1C)c1ccc(F)cc1 (stereo not shown) [XXVIII-1, Methyl 3-(4-fluorophenyl)-3-[(2-methyl-5-oxopyrrolidin-1-yl)imino]propanoate] | 2.13
23 | CC1CCn2nc(-c3ccc(F)cc3)c(C(=O)O)c21 (stereo not shown) [XXXI-2, 2-(4-Fluorophenyl)-4-methyl-5,6-dihydro-4H-pyrrolo[1,2-b]pyrazole-3-carboxylic acid] | 1.84
24 | CC1CCn2nc(-c3ccc(F)cc3)c(I)c21 (stereo not shown) [VIII-21, 2-(4-Fluorophenyl)-3-iodo-4-methyl-5,6-dihydro-4H-pyrrolo[1,2-b]pyrazole] | 3.67
25 | Clc1ccc(-c2cc3n(n2)CCC3)cc1 [VII-4, 2-(4-Chlorophenyl)-5,6-dihydro-4H-pyrrolo[1,2-b]pyrazole] | 2.86
26 | Fc1ccc(-c2cc3n(n2)CCOC3)cc1 [VIIa-1, 2-(4-Fluorophenyl)-6,7-dihydro-4H-pyrazolo[5,1-c][1,4]oxazine] | 2.01
27 | ClCc1cc(-c2ccccc2)n[nH]1 [XV-1, 5-(Chloromethyl)-3-phenyl-1H-pyrazole] | 2.05
28 | c1ccc(-c2cc3n(n2)CCSC3)cc1 [VIIb-1, 2-Phenyl-6,7-dihydro-4H-pyrazolo[5,1-c][1,4]thiazine] | 2.46
29 | FC(F)(F)c1ccc(-c2cc3n(n2)CCC3)cc1 [VII-9, 2-[4-(Trifluoromethyl)phenyl]-5,6-dihydro-4H-pyrrolo[1,2-b]pyrazole] | 3.2

Row | SMILES | chromatographic logP
30 | Fc1cccc(-c2nn3c(c2I)CCC3)c1 [VIII-11, 2-[3-Fluorophenyl]-3-iodo-5,6-dihydro-4H-pyrrolo[1,2-b]pyrazole] | 3.32
31 | c1ccc(-c2cc3n(n2)CCC3)cc1 [VII-2, 2-(Phenyl)-5,6-dihydro-4H-pyrrolo[1,2-b]pyrazole] | 2.19
32 | Fc1ccc(-c2nn3c(c2I)CCCCC3)cc1 [VIII-2, 2-(4-Fluorophenyl)-3-iodo-5,6,7,8-tetrahydro-4H-pyrazolo[1,5-a]azepine] | 4.35
33 | Clc1ccc(C#Cc2ccncc2)cc1 [II-5, 4-{[4-Chlorophenyl]ethynyl}pyridine] | 2.43
34 | Ic1c(-c2ccccc2)nn2c1CCC2 [VIII-5, 2-(Phenyl)-3-iodo-5,6-dihydro-4H-pyrrolo[1,2-b]pyrazole] | 3.09
35 | Fc1ccc(-c2nn3c(c2I)CCCC3)cc1 [VIII-1, 2-(4-Fluorophenyl)-3-iodo-4,5,6,7-tetrahydropyrazolo[1,5-a]pyridine] | 3.79
36 | CC1CCc2c(Br)c(-c3ccc(F)cc3)nn21 (stereo not shown) [VIII-20, 2-(4-Fluorophenyl)-3-bromo-6-methyl-5,6-dihydro-4H-pyrrolo[1,2-b]pyrazole] | 3.77
37 | Fc1ccc(-c2cc(CCOCc3ccccc3)[nH]n2)cc1 [XXI, 5-[2-(Benzyloxy)ethyl]-3-(4-fluorophenyl)-1H-pyrazole] | 3.09
38 | c1ccc(-c2cc3n(n2)CCCC3)cc1 [VII-5, 2-(Phenyl)-4,5,6,7-tetrahydropyrazolo[1,5-a]pyridine] | 2.57
39 | Ic1c(-c2ccsc2)nn2c1CCC2 [VIII-8, 2-[3-Thienyl]-3-iodo-5,6-dihydro-4H-pyrrolo[1,2-b]pyrazole] | 2.97
40 | c1csc(-c2cc3n(n2)CCCC3)c1 [VII-11, 2-(2-Thienyl)-4,5,6,7-tetrahydropyrazolo[1,5-a]pyridine] | 2.42
41 | FC(F)(F)c1ccc(C#Cc2ccncc2)cc1 [II-1, 4-{[4-(Trifluoromethyl)phenyl]ethynyl}pyridine] | 2.86
42 | Brc1c(-c2ccccc2)nn2c1CSCC2 [VIII-18, 3-Bromo-2-phenyl-6,7-dihydro-4H-pyrazolo[5,1-c][1,4]thiazine] | 3.42
43 | CC1CCC(=O)N1N=C(c1ccccc1)c1ccccc1 (stereo not shown) [XXVI-1, 1-[(Diphenylmethylene)amino]-5-methylpyrrolidin-2-one] | 2.73
44 | CCOC(=O)CC(=NN1CCCC1=O)c1ccccc1F [XXVIII-4, Ethyl 3-(2-fluorophenyl)-3-[(2-oxopyrrolidin-1-yl)imino]propanoate] | 1.97
45 | Fc1cccc(-c2cc3n(n2)CCC3)c1 [VII-10, 2-[3-Fluorophenyl]-5,6-dihydro-4H-pyrrolo[1,2-b]pyrazole] | 2.46
46 | FC(F)(F)c1cccc(-c2nn3c(c2I)CCC3)c1 [VIII-3, 2-[3-(Trifluoromethyl)phenyl]-3-iodo-5,6-dihydro-4H-pyrrolo[1,2-b]pyrazole] | 4.11
47 | COc1ccc(-c2cc3n(n2)CCC3)cc1 [VII-7, 2-[4-(Methoxy)phenyl]-5,6-dihydro-4H-pyrrolo[1,2-b]pyrazole] | 2.17
48 | COC(=O)c1c(-c2ccc(F)cc2)nn2c1CCC2C (stereo not shown) [XXX-1, Methyl 2-(4-fluorophenyl)-6-methyl-5,6-dihydro-4H-pyrrolo[1,2-b]pyrazole-3-carboxylate] | 2.84
49 | Ic1c(-c2ccsc2)nn2c1CCCC2 [VIII-14, 2-(3-Thienyl)-3-iodo-4,5,6,7-tetrahydropyrazolo[1,5-a]pyridine] | 3.4
50 | Clc1ccc(-c2nn3c(c2I)CCC3)cc1 [VIII-4, 2-(4-Chlorophenyl)-3-iodo-5,6-dihydro-4H-pyrrolo[1,2-b]pyrazole] | 3.88
51 | CCOC(=O)CC(=NN1C(=O)CCC1C)c1ccccc1F (stereo not shown) [XXVIII-3, Ethyl 3-(2-fluorophenyl)-3-[(2-methyl-5-oxopyrrolidin-1-yl)imino]propanoate] | 2.34
52 | c1cc(-c2cc3n(n2)CCC3)cs1 [VII-13, 2-[3-Thienyl]-5,6-dihydro-4H-pyrrolo[1,2-b]pyrazole] | 2.01

Same assay, conditions: pH 7, log P(pH7), pH7; preparation examples in the text

Row | SMILES | chromatographic logP
53 | FC(F)(F)c1cccc(C#Cc2ccncc2)c1 [II-2, 4-{[3-(Trifluoromethyl)phenyl]ethynyl}pyridine] | 3.5
54 | COc1ccc(C#Cc2ccncc2)cc1 [II-3, 4-{[4-(Methoxy)phenyl]ethynyl}pyridine] | 2.68
55 | Fc1ccc(C#Cc2ccncc2)cc1 [II-4, 4-{[4-Fluorophenyl]ethynyl}pyridine] | 2.81
